Test results reported in PMC6039321 (International Journal for Parasitology: Drugs and Drug …, 2018).
Like-named read-outs stand apart in the source and are kept apart here.

How the values were obtained:
P. yoelii (17XL) = test: microbe, parasite or virus in culture; type: cell-based, Plasmodium yoelii; conditions: for IC50: read-out: OCA P. yoelii IC50
HEK 293 cells = type: cell-based, H. sapiens; conditions: for IC50: read-out: OCA HEK 293 IC50, Table 4
cytbc1 = cytbc1 (Plasmodium falciparum, UniProt Q02768); test: Enzymatic cytbc1 activity; type: biochemical, P. falciparum K1 strain; conditions: for % Inhibition Cytbc1 biochemical assay, 5 μM: compound at 5 μM, P. falciparum mitochondria, atovaquone 100% inhibition control
cytbc1, sequence (Q02768 whole entry): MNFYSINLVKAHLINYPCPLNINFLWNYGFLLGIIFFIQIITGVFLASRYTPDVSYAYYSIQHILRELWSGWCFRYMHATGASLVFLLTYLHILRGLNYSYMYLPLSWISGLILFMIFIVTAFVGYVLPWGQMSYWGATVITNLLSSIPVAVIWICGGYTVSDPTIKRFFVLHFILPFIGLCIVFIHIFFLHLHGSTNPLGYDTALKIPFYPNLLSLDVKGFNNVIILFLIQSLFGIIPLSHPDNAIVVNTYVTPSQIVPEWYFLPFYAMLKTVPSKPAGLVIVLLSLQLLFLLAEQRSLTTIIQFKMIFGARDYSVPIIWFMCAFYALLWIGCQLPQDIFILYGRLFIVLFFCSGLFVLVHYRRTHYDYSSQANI

P. falciparum (K1) = type: cell-based, Plasmodium falciparum

Row | IC50 (P. yoelii (17XL); Table 4) [nM] | % Inhibition Cytbc1 biochemical assay, 5 μM (cytbc1) [%] | Structure (SMILES) | IC50 (HEK 293 cells) [µM] | other results
1 | 2200 ± 1950 | 89.93 ± 9.67 | Cc1cccc2nc(-c3ccc(-c4ccc(CN5CC(C)OC(C)C5)cc4)cc3)[nH]c12.O=C(O)C(F)(F)F (stereo not shown) [TCMDC-133823] | > 10 | 
2 |  |  | N#CC(C#N)=NNc1ccc(OC(F)(F)F)cc1 [FCCP, carbonyl cyanide 4-(trifluoromethoxy)phenylhydrazone] |  | Selectivity (P. falciparum vs H. sapiens) (P. falciparum (K1)): 1.93
3 | 1100 ± 131 | 77.11 ± 12.20 | Cc1cccc(-c2nn(-c3ccccc3)cc2C(=O)Nc2nnc(C)o2)c1 [TCMDC-125039] | > 10 | 
4 |  |  | O=C1C(O)=C([C@H]2CC[C@H](c3ccc(Cl)cc3)CC2)C(=O)c2ccccc21 [Atovaquone, reference compound] |  | inhibition of oxygen consumption signal in Plasmodium cells (P. yoelii (17XL); 1.25 μM atovaquone, 2·10^7 P. yoelii cells (Fig. 2B)): completely inhibited; IC50 (P. yoelii (17XL); Plasmodium yoelii): 5 ± 1 nM; inhibition at 0.5 µM (cytbc1; read-out: % Inhibition Cytbc1 biochemical assay, 0.5 μM): 105 ± 8.26%; inhibition at 5 µM (cytbc1; read-out: % Inhibition Cytbc1 biochemical assay, 5 μM): 101 ± 9.82%
5 |  |  | C=C(C)[C@H]1Cc2c(ccc3c2O[C@@H]2COc4cc(OC)c(OC)cc4[C@@H]2C3=O)O1 [Rotenone, reference compound] |  | inhibition of oxygen consumption signal in HEK 293 cells (HEK 293 cells; rotenone at 2.5 μM, 6.5·10^5 HEK 293 cells (Fig. 2A)): completely inhibited
6 |  |  | C/C=C(C)/C=C/C=C/[C@H](OC)[C@@H](C)[C@@H](OC)[C@@H](C)CCc1oc2c(O)c(OC)cc(OC)c2c(=O)c1C [Stigmatellin] |  | Selectivity (P. falciparum vs H. sapiens) (P. falciparum (K1); ratio of OCA IC50 HEK 293 / P. falciparum K1): 0.015
7 | 292 ± 249 | 100.30 ± 2.14 | c1ccc(CCNc2ncnc3c2[nH]c2ccccc23)cc1 [TCMDC-124578] | 7.52 ± 0.5 | 
8 | 514 ± 225 | 91.48 ± 7.57 | COCCN(C)c1ccc(C(=O)Nc2ccccc2)cc1NS(=O)(=O)Cc1ccccc1.O=C(O)C(F)(F)F [TCMDC-134575] | > 10 | 
9 | 8190 ± 1260 | 99.84 ± 2.22 | O=C(Nc1ccccc1O)c1ccc(S(=O)(=O)c2ccc(Cl)cc2)cc1 [TCMDC-123689] | > 10 | 
10 | 1320 ± 860 | 50.34 ± 6.78 | Clc1cccc(Nc2ccc3c(N4CCCCC4)ncnc3n2)c1 [TCMDC-134937] | > 10 | 
11 | 760 ± 109 | 59.97 ± 8.70 | COc1ccc(NS(=O)(=O)c2cc(NC(=O)Cn3ccccc3=O)ccc2N2CCCCC2)cc1 [TCMDC-124874] | > 10 | 
